The values that follow are results of earlier work, collected in patent US20050215521A1, “Modafinil combination therapy for improving sleep quality” (priority 2003, published 2005).

Structures can show the parent of a compound that is named as a salt.

One series has as its system mice. The settings on record: reference agents, scores below 40 of 60 denote behavioral depression.
For series [1] the following is noted: oral.
For the next series, the system named is GABA uptake system. Conditions: at concentrations of 5×10^4 M.
Series [2] deals with GABA:2-oxo-glutarate aminotransferase (Homo sapiens, UniProt P80404). Conditions: at concentrations of 10^−3 M.
Series [3] has as its system L-glutamate 1-carboxylase. The settings on record: at concentrations of 10^−3 M.
For series [4] the following is noted: in vivo.

Chain of GABA:2-oxo-glutarate aminotransferase (P80404 29-500): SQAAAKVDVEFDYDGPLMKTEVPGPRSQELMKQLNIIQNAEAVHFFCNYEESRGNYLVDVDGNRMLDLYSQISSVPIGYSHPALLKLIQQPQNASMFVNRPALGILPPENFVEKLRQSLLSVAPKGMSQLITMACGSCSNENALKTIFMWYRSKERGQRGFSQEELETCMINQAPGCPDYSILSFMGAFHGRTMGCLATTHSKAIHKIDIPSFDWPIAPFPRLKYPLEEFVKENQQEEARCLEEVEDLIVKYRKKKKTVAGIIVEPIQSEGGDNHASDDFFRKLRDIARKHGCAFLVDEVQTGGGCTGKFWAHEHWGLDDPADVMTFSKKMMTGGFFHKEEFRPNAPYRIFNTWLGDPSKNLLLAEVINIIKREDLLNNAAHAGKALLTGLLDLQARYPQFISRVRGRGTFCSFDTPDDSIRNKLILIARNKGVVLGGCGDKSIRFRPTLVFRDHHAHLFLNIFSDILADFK

With `O=C(CCCN1CCC(O)(c2ccc(Cl)cc2)CC1)c1ccc(F)cc1` [haloperidol], the ED100 in the series with mice was 10 mg/kg. On to `CN1C(=O)CN=C(c2ccccc2)c2cc(Cl)ccc21` [diazepam, 7-chloro-1,3-dihydro-1-methyl-5-phenyl-2H-1,4-benzodiazepin-2-one], for which the ED100 in the series on mice is given as 50 mg/kg.

Regarding `NC(=O)C[S+]([O-])C(c1ccccc1)c1ccccc1` (stereo not shown) [Modafinil, 2-[(Diphenylmethyl)sulfinyl]-N-acetamide], the solubility in methanol entry was “sparingly or slightly soluble” and the solubility in water entry was “insoluble”. The solubility in acetone result (acetone) is on record as “sparingly or slightly soluble”. Moreover, for the setting “cyclohexane”, the solubility in cyclohexane entry was “insoluble”. On to `CCCC(C)(COC(N)=O)COC(N)=O` [meprobamate], for which the ED100 with mice is 300 mg/kg.

As to `Cc1ccc(-c2nc3ccc(C)cn3c2CC(=O)N(C)C)cc1` [zolpidem, N,N,6-trimethyl-2-(4-methylphenyl)-imidazo[1,2-s]pyridine-3-acetamide], the “elimination half-life (mean)” value in series [1] is 2.4 h. The duration of action result in series [1] (hypnotic action) was “up to 6 hours”. As for `CCC1(c2ccccc2)CCC(=O)NC1=O` (stereo not shown) [glutethimide], the ED100 with mice was 300 mg/kg.

`Oc1noc2c1CCNC2` [gaboxadol, 4,5,6,7-tetrahydroisoxazolo[5,4-c]pyridin-3-ol]: in the series with GABA uptake system, the “interaction with the GABA uptake system” value is given as “did not interact”. Also, the “interaction with GABA:2-oxo-glutarate aminotransferase” value in series [2] is listed as “did not interact”. In addition, the “interaction with L-glutamate 1-carboxylase” value in series [3] is listed as “did not interact”. Turning to zopiclone, the “binding to plasma proteins” value in the series on plasma proteins was “not highly bound”. For the same compound, in series [4], the “absorption from the stomach” value was “well absorbed”.

Turning to `COC(=O)[C@H]1[C@H]2C[C@@H]3c4[nH]c5cc(OC)ccc5c4CCN3C[C@H]2C[C@@H](OC(=O)c2cc(OC)c(OC)c(OC)c2)[C@@H]1OC` [reserpine], the ED100 with mice is on record as 50 mg/kg. With `Cc1ccc(-c2nc3ccc(C)cn3c2CC(=O)N(C)C)cc1` [zolpidem tartrate], the solubility in methanol result is given as “sparingly soluble” and the solubility in water entry is listed as “slightly soluble”. Also, the “solubility in methylene chloride” value (methylene chloride) was “practically insoluble”.

Consider `CP(=O)(O)CCCN` [SKF 97541, 3-aminopropyl(methyl)phosphinic acid], for which the solubility in water entry is “readily soluble”. Also, the “solubility in dilute aqueous base” value (dilute aqueous base) is on record as “readily soluble”. With `CCCC(C)C1(CC)C(=O)NC(=O)NC1=O` (stereo not shown) [pentobarbital], the ED100 with mice is given as 100 mg/kg.
